According to patent US12053549B2, “Laxative tablet” (SETOLAS Holdings, Inc., priority 2018, dated 2024):

Test: Volume-based 50% particle diameter (D50) of raw materials by laser diffractometry
Format: physicochemical
Conditions: raw material
Method: 0.7 g of magnesium oxide was placed in a beaker with 70 mL of 0.2% sodium hexametaphosphate solution, and the mixture was subjected to dispersion treatment (3 minutes) using an ultrasonic homogenizer (Nippon Seiki, US-300). The volume-based 50% particle size (D50) of the magnesium oxide was then measured using a laser diffraction scattering particle size analyzer (Nikkiso, Microtrac).

Structure (SMILES): [O]=[Mg] [Magnesium oxide]
- volume-based 50% particle size (D50): 6.5 μm
